The subject of one data set is Bcl-2. As to the kind of experiment: Apoptotic markers assay: Bcl-2 level in HCT-116 cells. It is filed as cell-based, human. The source says: Appendix A gives more details.
Apoptosis dysregulation is a hallmark of human cancer, resulting in uncontrolled proliferation, insufficient response to treatments, and the formation of drug-resistant cells.[60] As a result, current anticancer therapies are recognized for their ability to induce apoptosis in cancer cells via both extrinsic and intrinsic routes.[56]
The Bcl-2 protein family, comprising pro-apoptotic proteins (Bax) and anti-apoptotic proteins (Bcl-2), primarily regulates apoptosis. […] As a result, we evaluated the level of Bcl-2 and Bax proteins in HCT-116 colorectal cancer cells subjected to treatments with compounds 8g and 8h. […]
wash solution to every well. Repeat the wash 4 more times for a total of 5 washes. After the final wash, empty or aspirate the wells and firmly tap the plate on a lint free paper towel to remove any remaining wash buffer. Pipet 100 μL of yellow Antibody into each well, except the Blank. Seal the plate and incubate at room temperature on a plate shaker for 1 hour at ~500 rpm. Empty the contents of the wells and wash by adding 400 μL of […]
towel to remove any remaining wash buffer. Add 100 μL of blue Conjugate to each […]
for 30 minutes at ~500 rpm. Empty the contents of the wells and wash by adding 400 μL of wash solution to every well. Repeat the wash 4 more times for a total of 5 washes.
After the final wash, empty or aspirate the wells and firmly tap the plate on a lint free paper towel to remove any remaining wash buffer. Pipet 100 μL of Substrate Solution into each well. Incubate for 30 minutes at room temperature on a plate shaker at ~500 rpm. Pipet 100 μL Stop Solution to each well. Blank the plate reader against the Blank wells, read the optical density at 450 nm. Calculate the average net Optical Density (OD) bound for each standard and sample by subtracting the average Blank OD from the average OD for each standard and sample. […]
Approximate a straight line through the points. The concentration of Bax in the unknowns can be determined by interpolation. […]

For a further data set, the system named is HCT-116 and MCF-7. Description: Antiproliferative assay, average over the two cell lines. It counts as cell-based. The conditions noted are these: Homo sapiens; average of HCT-116 and MCF-7; read-out: Average IC50 (GI50). An excerpt: The MTT assay[53,54] was employed to evaluate the antiproliferative efficacy of new compounds 8a–l against two human cancer cell lines: MCF-7 (breast) and HCT-116 (colorectal carcinoma). Erlotinib was employed as the benchmark. Check Appendix A for additional experimental information.
The MTT assay[53,54] was used to evaluate the antiproliferative properties of novel compounds 8a–l against two human cancer cell lines: MCF-7 (breast cancer) and HCT-116 (colorectal carcinoma). Erlotinib was utilized as the reference. […] The provided values represent the means of three experiments ± standard deviation (SD).

Another data set deals with VEGFR-2 (Homo sapiens, UniProt P35968). As to the kind of experiment: VEGFR-2 inhibitory assay.
Sequence of VEGFR-2 (P35968 20-1356): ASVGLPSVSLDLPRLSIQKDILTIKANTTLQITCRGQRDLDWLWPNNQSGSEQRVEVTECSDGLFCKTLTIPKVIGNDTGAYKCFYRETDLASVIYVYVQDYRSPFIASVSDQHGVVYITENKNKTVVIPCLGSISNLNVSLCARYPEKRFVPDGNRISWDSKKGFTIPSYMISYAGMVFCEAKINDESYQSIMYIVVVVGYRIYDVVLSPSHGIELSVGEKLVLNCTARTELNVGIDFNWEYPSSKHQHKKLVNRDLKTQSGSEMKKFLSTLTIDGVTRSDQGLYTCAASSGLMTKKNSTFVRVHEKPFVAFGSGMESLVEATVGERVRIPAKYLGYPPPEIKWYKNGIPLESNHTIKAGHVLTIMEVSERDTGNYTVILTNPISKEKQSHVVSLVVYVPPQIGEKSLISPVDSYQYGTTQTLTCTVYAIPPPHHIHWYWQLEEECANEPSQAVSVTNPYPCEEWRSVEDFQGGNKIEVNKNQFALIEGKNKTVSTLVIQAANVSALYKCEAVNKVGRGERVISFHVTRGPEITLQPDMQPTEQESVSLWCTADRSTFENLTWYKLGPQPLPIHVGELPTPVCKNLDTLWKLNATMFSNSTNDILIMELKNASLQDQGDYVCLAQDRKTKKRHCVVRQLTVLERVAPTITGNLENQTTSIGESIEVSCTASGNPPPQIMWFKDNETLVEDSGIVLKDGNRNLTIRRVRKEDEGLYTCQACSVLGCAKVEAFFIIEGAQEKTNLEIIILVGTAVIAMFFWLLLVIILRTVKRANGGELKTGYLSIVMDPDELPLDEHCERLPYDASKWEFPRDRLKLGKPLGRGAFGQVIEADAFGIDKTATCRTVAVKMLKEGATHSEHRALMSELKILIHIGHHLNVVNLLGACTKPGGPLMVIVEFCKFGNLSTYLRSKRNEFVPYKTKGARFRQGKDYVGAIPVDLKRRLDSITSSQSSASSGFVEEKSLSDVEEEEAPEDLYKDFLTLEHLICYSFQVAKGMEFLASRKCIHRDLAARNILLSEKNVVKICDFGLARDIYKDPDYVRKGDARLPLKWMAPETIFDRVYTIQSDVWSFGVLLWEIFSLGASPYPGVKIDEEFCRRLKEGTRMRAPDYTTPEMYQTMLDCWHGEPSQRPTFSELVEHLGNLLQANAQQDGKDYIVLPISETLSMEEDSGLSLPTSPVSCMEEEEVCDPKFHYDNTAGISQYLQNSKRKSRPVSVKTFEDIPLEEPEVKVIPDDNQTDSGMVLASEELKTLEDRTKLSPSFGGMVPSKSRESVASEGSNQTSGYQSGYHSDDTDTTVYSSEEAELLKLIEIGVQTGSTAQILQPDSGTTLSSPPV
In the next data set the test system is Bax. As to the kind of experiment: Apoptotic markers assay: Bax level in HCT-116 cells. It is filed as cell-based, human. The conditions noted are these: for Bax fold change: relative to untreated control.
A further data set addresses EGFR (Homo sapiens, UniProt P00533). Description: EGFR inhibitory assay (EGFR-TK assay).
In the next data set the test system is Caspase-9. Description: Caspase-9 activation assay in HCT-116 cells. The conditions noted are these: for Caspase-9 fold change: relative to control.
The nature of data set [1]: Cell viability assay (MTT) on normal mammary epithelial cells. It counts as cell-based. The conditions noted are these: human, MCF-10A normal mammary gland epithelial cells, four days. On the procedure:
This test assesses the safety of new compounds 8a–l on normal cell lines. The efficacy of 8a–l was tested on the normal human mammary gland epithelial cell line MCF-10A. MCF-10A cells were incubated with 50 µM of each tested compound for four days. Cell viability was assessed using the MTT assay.[11,48] Appendix A has extra experimental details.
This assay evaluates the impact of novel compounds 8a–l on normal cell lines to determine their safety, an essential consideration in drug discovery. The efficacy of the examined compounds was evaluated utilizing the normal human mammary gland epithelial cell line MCF-10A. […]
4.2. Biological evaluation
4.2.1 Cell Viability assay (MTT assay)
MTT assay was performed to investigate the effect of the synthesized compounds on mammary epithelial cells (MCF-10A). The cells were propagated in medium consisting of Ham's F-12 medium/ Dulbecco's modified Eagle's medium (DMEM) (1:1) supplemented with 10% foetal calf serum (GIBCO, UK), 2 mM glutamine, insulin (10 μg/mL), hydrocortisone (500 ng/mL) and epidermal growth factor (20 ng/mL). Trypsin ethylenediamine tetra acetic acid (EDTA) was used to passage the cells after every 2-3 days. 96-well flat-bottomed cell culture plates were used to seed the cells at a density of 10^4 cells mL-1. The medium was aspirated from all the wells of culture plates after 24 h followed by the addition of synthesized compounds (in 200 μL medium to yield a final concentration of 0.1% (v/v) dimethyl sulfoxide) into individual wells of the plates.
Four wells were designated to a single compound. The plates were allowed to incubate at 37°C for 96 h. Afterwards, the medium was aspirated and 3-[4,5-dimethylthiazol-2-yl]-2,5-diphenyltetrazolium bromide (MTT) (0.4 mg/mL) in medium was added to each well and subsequently incubated for 3 h. The medium was aspirated and 150 μL dimethyl sulfoxide (DMSO) was added to each well. The plates were vortexed followed by the measurement of absorbance at 540 nm on a microplate reader. […]

Another data set relates to Caspase-8. As to the kind of experiment: Caspase-8 activation assay in HCT-116 cells. The conditions noted are these: for Caspase-8 fold change: relative to control.

Values joined by “and” are separate entries in the source; they are usually repeats but may differ in a detail not shown here. Equal values may be shown once.

Sequence of EGFR (P00533 669-1210): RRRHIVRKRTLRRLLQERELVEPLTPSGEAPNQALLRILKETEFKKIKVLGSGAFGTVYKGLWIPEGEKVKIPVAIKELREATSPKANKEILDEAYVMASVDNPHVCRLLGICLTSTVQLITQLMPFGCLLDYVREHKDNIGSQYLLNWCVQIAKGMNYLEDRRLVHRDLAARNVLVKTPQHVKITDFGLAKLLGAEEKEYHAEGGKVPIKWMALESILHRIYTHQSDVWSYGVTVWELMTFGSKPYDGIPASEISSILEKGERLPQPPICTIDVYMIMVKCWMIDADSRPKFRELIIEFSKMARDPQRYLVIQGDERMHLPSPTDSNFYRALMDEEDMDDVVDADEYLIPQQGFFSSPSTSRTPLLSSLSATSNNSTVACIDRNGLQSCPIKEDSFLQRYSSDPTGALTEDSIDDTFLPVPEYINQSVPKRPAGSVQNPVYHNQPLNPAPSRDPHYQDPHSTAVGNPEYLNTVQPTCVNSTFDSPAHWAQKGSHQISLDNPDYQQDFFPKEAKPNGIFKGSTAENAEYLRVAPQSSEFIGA
Procedure for VEGFR-2: Prepare all the solutions using autoclaved, deionized water and analytical grade
reagents. Prepare and store all the reagents at room temperature (unless indicated
EDTA, adjust the pH to 8.0 using NaOH solution, add 5 mL ultra-pure water; 1×Kinase
solution (1 M), 1 mL DTT, 50 μL tween-20, 450 mL ultrapure water, adjust pH to 7.5
and constant volume to 500 mL using ultrapure water; 4×Stop solution (40 mM): Mix
0.8 mL of the foregoing EDTA solution, 1 mL 10×Detection Buffer and 8.2 mL ultra-
pure water; 1×Detection Buffer: Mix 1 mL 10×Detection Buffer with 9 mL water;
before use). The assays used an ULight-labeled peptide substrate and a Europium-
W1024-labeled antiphosphotyrosine antibody. The VEGFR-2 was purchased from
Carna Biosciences, Inc. (New York, USA). The 384-well plates were obtained from
PerkinElmer. Compounds were dissolved in DMSO and diluted to 11 concentrations at
2×VEGFR-2 kinase solution (0.5 nM) was added to 384-well plates homogeneous
mixing and pre-reaction at room temperature for 30 min. […]
well plate, The final concentration of DMSO in the mixing system was 4%. […] The plate was read using an Envision plate reader. The inhibition rate (%) = (positive well reading-compound well reading)/(positive well reading-negative well reading)×100. The corresponding IC50 values were calculated using GraphPad Prism 5.0.

For the compound `CCS(=O)(=O)c1ccc2[nH]nc(C(=O)NNC(=O)NC34CC5CC(CC(C5)C3)C4)c2c1` [Compound 8g, 2-(5-(Ethylsulfonyl)-1H-indazole-3-carbonyl)-N-(adamantan-1-yl)hydrazine-1-carboxamide], in the data set on Bcl-2, the Bcl-2 level was 1.60 ± 0.001 ng/mL. The concentration for half-maximal inhibition (IC50) in the data set with HCT-116 and MCF-7 came to 26 nM. This compound also yielded an IC50 at VEGFR-2 of 16 ± 1 nM. In the data set with Bax, this compound yielded a Bax level of 490 ± 2 pg/mL and a Bax fold change of 8.20 fold. The compound further yielded a half-inhibitory concentration (IC50) against EGFR of 71 ± 5 nM. Besides, in the data set on Caspase-9, the “Caspase-9 Conc.” value turned out to be 21 ± 3 ng/mL and the Caspase-9 fold change is given as 21 fold. The viability at 4 days, 50 µM in data set [1] was found to be 91%. In addition, in the data set on Caspase-8, the “Caspase-8 Conc.” value is 1.80 ± 0.10 ng/mL; the Caspase-8 fold change is 18 fold and 18.00 fold.
With `CCS(=O)(=O)c1ccc2[nH]nc(C(=O)NNC(=O)NC3CCCCCC3)c2c1` [Compound 8h, 2-(5-(Ethylsulfonyl)-1H-indazole-3-carbonyl)-N-(cycloheptyl)hydrazine-1-carboxamide], the Bcl-2 level in the data set with Bcl-2 worked out at 1.30 ± 0.001 ng/mL. In the data set with Bcl-2 (relative to untreated control), this compound registered a Bcl-2 fold reduction of 3.90 fold. Also, the IC50 in the data set on HCT-116 and MCF-7 turned out to be 24 nM. At VEGFR-2, this compound displayed an IC50 of 12 ± 1 nM. For the same compound, in the data set on Bax, the Bax level came to 510 ± 3 pg/mL and the Bax fold change turned out to be 8.50 fold. On EGFR, the IC50 was 68 ± 5 nM. In the data set with Caspase-9, the “Caspase-9 Conc.” value is 23 ± 1 ng/mL and the Caspase-9 fold change worked out at 23 fold. This compound also showed a viability at 4 days, 50 µM in data set [1] of 90%. Also, in the data set on Caspase-8, the “Caspase-8 Conc.” value came out at 2.15 ± 0.20 ng/mL; the Caspase-8 fold change is 21 fold and 21.50 fold.
